# According to PMC5666424, “Marine-Derived 2-Aminoimidazolone Alkaloids. Leucettamine B-Related Polyandrocarpamines Inhibit Mammalian and Protozoan DYRK & CLK Kinases” (Marine Drugs, 2017):
# Columns and labels:
# Assay in all cases: KinomeScan
# Assay type in all cases: binding
# Conditions in all cases: 1 μM
# [1] = molecular target: T1, ABL1(F317L)-phosphorylated (Homo sapiens, UniProt P00519, F317L)
# T1 construct: purchased DiscoverX (KINOMEscan)
# [2] = molecular target: T2, ABL1(H396P)-nonphosphorylated (Homo sapiens, UniProt P00519, H396P)
# T2 construct: purchased DiscoverX (KINOMEscan)
# [3] = molecular target: T3, ABL1(Y253F)-phosphorylated (Homo sapiens, UniProt P00519, Y253F)
# T3 construct: purchased DiscoverX (KINOMEscan)
# ACVR2A = molecular target: T4, ACVR2A (Homo sapiens, UniProt P27037)
# T4 construct: purchased DiscoverX (KINOMEscan)
# ALK = molecular target: T5, ALK (Homo sapiens, UniProt Q9UM73)
# T5 construct: purchased DiscoverX (KINOMEscan)
# T5 sequence (Q9UM73 19-1620): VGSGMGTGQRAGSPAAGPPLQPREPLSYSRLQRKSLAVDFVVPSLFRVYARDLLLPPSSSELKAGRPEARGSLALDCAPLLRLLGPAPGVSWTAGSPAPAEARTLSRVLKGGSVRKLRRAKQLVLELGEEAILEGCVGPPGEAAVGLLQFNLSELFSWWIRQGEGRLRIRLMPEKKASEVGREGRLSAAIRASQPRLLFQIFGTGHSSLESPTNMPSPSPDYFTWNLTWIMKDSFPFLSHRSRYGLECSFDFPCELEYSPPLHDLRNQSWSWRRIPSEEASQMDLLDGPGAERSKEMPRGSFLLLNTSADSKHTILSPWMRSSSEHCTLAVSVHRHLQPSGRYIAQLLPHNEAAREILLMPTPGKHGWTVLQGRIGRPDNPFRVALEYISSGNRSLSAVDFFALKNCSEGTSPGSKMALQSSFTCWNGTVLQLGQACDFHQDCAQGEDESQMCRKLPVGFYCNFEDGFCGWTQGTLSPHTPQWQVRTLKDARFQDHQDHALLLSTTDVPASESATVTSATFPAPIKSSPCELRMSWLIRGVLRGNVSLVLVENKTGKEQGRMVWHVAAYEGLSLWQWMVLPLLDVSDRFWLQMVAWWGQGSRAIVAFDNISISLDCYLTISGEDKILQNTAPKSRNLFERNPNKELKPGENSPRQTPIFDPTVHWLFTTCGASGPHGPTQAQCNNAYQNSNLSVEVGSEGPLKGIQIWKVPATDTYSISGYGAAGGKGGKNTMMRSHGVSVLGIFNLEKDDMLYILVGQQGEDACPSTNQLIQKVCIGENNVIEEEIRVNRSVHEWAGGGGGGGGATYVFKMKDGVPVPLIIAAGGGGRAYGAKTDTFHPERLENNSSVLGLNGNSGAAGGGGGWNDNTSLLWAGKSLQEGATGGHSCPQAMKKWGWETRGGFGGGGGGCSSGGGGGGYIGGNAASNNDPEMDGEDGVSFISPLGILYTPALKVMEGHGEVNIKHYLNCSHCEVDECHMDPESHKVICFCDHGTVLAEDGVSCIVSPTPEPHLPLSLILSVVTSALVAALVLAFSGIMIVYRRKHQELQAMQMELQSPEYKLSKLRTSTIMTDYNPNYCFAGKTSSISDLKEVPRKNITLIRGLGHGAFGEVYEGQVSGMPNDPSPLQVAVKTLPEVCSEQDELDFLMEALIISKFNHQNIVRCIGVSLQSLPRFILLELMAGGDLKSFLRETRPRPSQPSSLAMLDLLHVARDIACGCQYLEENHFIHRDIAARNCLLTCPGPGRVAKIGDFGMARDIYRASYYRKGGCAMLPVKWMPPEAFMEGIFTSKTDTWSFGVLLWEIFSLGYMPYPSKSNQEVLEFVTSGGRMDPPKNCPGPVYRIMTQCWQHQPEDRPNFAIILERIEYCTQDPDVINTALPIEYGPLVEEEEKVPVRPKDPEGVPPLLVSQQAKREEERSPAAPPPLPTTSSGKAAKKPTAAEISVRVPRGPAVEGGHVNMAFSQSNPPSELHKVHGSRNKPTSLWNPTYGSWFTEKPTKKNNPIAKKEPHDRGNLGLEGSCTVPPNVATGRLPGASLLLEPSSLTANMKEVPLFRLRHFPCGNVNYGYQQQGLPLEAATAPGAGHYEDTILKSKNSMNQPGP
# AURKA = molecular target: T6, AURKA (Homo sapiens, UniProt O14965)
# T6 construct: purchased DiscoverX (KINOMEscan)
# AURKB = molecular target: T7, AURKB (Homo sapiens, UniProt Q96GD4)
# T7 construct: purchased DiscoverX (KINOMEscan)
# BMPR1A = molecular target: T8, BMPR1A (Homo sapiens, UniProt P36894)
# T8 construct: purchased DiscoverX (KINOMEscan)
# CAMKK1 = molecular target: T9, CAMKK1 (Homo sapiens, UniProt Q8N5S9)
# T9 construct: purchased DiscoverX (KINOMEscan)
# T9 sequence (Q8N5S9 whole entry): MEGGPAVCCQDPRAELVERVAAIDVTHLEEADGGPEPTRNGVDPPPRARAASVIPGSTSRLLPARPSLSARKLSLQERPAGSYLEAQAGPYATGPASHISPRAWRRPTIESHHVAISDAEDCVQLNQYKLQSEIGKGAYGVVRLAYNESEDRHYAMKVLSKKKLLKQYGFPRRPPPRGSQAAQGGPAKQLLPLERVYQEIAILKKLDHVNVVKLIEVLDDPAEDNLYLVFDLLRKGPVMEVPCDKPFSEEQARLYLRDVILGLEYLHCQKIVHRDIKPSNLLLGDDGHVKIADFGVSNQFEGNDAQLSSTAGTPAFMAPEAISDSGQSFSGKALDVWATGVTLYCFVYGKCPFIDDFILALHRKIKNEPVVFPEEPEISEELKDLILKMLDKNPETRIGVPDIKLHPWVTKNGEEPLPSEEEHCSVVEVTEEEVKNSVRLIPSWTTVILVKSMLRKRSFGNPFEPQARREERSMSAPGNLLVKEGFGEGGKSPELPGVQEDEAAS
# CDKL3 = molecular target: T10, CDKL3 (Homo sapiens, UniProt Q8IVW4)
# T10 construct: purchased DiscoverX (KINOMEscan)
# CTK = molecular target: T11, CTK (Homo sapiens, UniProt P42679)
# T11 construct: purchased DiscoverX (KINOMEscan)
# [4] = molecular target: T12, EGFR(L747-S752del, P753S) (Homo sapiens, UniProt P00533, DEL747-752/P753S)
# T12 construct: purchased DiscoverX (KINOMEscan)
# EGFR(L858R,T790M) = molecular target: T13, EGFR(L858R,T790M) (Homo sapiens, UniProt P00533, L858R/T790M)
# T13 construct: purchased DiscoverX (KINOMEscan)
# EPHB3 = molecular target: T14, EPHB3 (Homo sapiens, UniProt P54753)
# T14 construct: purchased DiscoverX (KINOMEscan)
# FGR = molecular target: T15, FGR (Homo sapiens, UniProt P09769)
# T15 construct: purchased DiscoverX (KINOMEscan)
# T15 sequence (P09769 whole entry): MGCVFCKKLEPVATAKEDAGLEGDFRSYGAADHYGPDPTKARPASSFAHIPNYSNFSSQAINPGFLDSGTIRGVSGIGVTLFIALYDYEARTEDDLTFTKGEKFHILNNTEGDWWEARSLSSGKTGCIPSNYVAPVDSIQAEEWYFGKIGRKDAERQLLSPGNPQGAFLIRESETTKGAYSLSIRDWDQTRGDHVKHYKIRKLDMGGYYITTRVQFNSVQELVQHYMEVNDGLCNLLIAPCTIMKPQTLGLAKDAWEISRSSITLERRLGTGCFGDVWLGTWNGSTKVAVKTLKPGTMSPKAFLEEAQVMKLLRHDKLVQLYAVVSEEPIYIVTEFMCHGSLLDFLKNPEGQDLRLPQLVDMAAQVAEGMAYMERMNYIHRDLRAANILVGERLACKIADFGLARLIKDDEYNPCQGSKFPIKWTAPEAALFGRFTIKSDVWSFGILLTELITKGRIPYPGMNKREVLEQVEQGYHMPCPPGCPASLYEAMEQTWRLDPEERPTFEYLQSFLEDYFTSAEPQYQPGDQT
# FLT3(D835Y) = molecular target: T16, FLT3(D835Y) (Homo sapiens, UniProt P36888, D835Y)
# T16 construct: purchased DiscoverX (KINOMEscan)
# GRK1 = molecular target: T17, GRK1 (Homo sapiens, UniProt Q15835)
# T17 construct: purchased DiscoverX (KINOMEscan)
# GSK3A = molecular target: T18, GSK3A (Homo sapiens, UniProt P49840)
# T18 construct: purchased DiscoverX (KINOMEscan)
# INSR = molecular target: T19, INSR (Homo sapiens, UniProt P06213)
# T19 construct: purchased DiscoverX (KINOMEscan)
# IRAK1 = molecular target: T20, IRAK1 (Homo sapiens, UniProt P51617)
# T20 construct: purchased DiscoverX (KINOMEscan)
# IRAK3 = molecular target: T21, IRAK3 (Homo sapiens, UniProt Q9Y616)
# T21 construct: purchased DiscoverX (KINOMEscan)
# MAP3K15 = molecular target: T22, MAP3K15 (Homo sapiens, UniProt Q6ZN16)
# T22 construct: purchased DiscoverX (KINOMEscan)
# MAP3K2 = molecular target: T23, MAP3K2 (Homo sapiens, UniProt Q9Y2U5)
# T23 construct: purchased DiscoverX (KINOMEscan)
# MAP3K4 = molecular target: T24, MAP3K4 (Homo sapiens, UniProt Q9Y6R4)
# T24 construct: purchased DiscoverX (KINOMEscan)
# MERTK = molecular target: T25, MERTK (Homo sapiens, UniProt Q12866)
# T25 construct: purchased DiscoverX (KINOMEscan)
# MET(Y1235D) = molecular target: T26, MET(Y1235D) (Homo sapiens, UniProt P08581, Y1235D)
# T26 construct: purchased DiscoverX (KINOMEscan)
# T26 sequence (P08581 25-1390 Y1235D): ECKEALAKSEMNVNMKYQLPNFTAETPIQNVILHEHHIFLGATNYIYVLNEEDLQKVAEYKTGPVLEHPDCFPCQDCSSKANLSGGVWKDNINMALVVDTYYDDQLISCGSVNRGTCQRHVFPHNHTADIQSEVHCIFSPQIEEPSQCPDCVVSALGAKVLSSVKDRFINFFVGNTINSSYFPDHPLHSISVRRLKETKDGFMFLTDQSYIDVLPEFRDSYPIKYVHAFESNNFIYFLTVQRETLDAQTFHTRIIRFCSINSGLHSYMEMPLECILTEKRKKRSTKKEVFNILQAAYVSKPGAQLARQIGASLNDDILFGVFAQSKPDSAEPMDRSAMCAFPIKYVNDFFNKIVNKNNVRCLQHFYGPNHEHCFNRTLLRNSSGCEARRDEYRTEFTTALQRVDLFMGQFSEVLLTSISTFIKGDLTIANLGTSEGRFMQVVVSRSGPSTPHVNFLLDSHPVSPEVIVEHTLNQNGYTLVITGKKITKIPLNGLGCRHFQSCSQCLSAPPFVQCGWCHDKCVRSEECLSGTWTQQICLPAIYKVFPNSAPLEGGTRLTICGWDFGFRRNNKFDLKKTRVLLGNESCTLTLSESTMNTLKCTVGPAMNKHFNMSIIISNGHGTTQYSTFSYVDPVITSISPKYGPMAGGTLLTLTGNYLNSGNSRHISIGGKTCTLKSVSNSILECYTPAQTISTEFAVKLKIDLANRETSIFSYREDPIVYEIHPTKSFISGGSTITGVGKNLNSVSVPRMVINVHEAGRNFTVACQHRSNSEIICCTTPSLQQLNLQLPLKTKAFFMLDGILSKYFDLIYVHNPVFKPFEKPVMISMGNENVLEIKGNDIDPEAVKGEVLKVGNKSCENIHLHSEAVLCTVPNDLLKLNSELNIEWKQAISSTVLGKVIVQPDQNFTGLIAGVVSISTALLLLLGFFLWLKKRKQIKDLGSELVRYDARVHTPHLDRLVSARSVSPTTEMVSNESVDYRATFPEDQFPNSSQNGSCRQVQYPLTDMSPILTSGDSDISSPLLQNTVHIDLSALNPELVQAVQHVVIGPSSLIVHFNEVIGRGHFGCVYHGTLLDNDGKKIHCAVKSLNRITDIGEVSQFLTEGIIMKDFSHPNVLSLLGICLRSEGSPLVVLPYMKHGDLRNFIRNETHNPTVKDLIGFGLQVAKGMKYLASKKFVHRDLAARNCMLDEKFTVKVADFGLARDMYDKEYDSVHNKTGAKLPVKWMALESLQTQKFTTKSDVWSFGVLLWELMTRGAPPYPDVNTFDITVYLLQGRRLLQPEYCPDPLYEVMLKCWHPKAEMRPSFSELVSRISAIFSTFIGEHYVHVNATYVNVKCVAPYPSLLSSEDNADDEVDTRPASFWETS
# MLK3 = molecular target: T27, MLK3 (Homo sapiens, UniProt Q16584)
# T27 construct: purchased DiscoverX (KINOMEscan)
# MTOR = molecular target: T28, MTOR (Homo sapiens, UniProt P42345)
# T28 construct: purchased DiscoverX (KINOMEscan)
# NEK11 = molecular target: T29, NEK11 (Homo sapiens, UniProt Q8NG66)
# T29 construct: purchased DiscoverX (KINOMEscan)
# NEK9 = molecular target: T30, NEK9 (Homo sapiens, UniProt Q8TD19)
# T30 construct: purchased DiscoverX (KINOMEscan)
# SRMS = molecular target: T31, SRMS (Homo sapiens, UniProt Q9H3Y6)
# T31 construct: purchased DiscoverX (KINOMEscan)
# TIE1 = molecular target: T32, TIE1 (Homo sapiens, UniProt P35590)
# T32 construct: purchased DiscoverX (KINOMEscan)
# TSSK1B = molecular target: T33, TSSK1B (Homo sapiens, UniProt Q9BXA7)
# T33 construct: purchased DiscoverX (KINOMEscan)
# [5] = molecular target: T34, TYK2(JH1domain-catalytic) (Homo sapiens, UniProt P29597)
# T34 construct: TYK2(JH1domain-catalytic); purchased DiscoverX (KINOMEscan)
# T34 sequence (P29597 871-1187 limits assumed): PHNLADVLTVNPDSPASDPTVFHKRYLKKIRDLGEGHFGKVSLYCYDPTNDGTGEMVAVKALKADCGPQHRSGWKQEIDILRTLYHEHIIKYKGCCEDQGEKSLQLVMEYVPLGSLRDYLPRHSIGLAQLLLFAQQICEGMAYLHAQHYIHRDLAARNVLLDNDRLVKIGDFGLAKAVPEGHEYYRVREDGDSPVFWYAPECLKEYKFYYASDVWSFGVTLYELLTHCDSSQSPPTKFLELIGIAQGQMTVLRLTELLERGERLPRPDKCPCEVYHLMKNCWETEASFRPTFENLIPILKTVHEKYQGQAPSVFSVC
# ULK3 = molecular target: T35, ULK3 (Homo sapiens, UniProt Q6PHR2)
# T35 construct: purchased DiscoverX (KINOMEscan)
# T35 sequence (Q6PHR2 whole entry): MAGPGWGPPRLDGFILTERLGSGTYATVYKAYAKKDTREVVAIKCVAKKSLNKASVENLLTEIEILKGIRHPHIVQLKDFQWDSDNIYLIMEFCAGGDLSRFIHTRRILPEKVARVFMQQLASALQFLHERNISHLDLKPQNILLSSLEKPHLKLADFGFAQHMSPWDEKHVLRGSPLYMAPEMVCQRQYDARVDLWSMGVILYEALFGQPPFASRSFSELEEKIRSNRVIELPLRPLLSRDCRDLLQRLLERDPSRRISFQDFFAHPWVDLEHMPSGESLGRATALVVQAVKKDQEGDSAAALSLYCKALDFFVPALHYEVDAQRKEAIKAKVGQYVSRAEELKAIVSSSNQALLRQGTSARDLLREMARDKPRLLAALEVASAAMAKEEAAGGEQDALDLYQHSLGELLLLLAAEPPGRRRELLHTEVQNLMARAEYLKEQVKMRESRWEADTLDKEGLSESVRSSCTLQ
# YANK3 = molecular target: T36, YANK3 (Homo sapiens, UniProt Q86UX6)
# T36 construct: purchased DiscoverX (KINOMEscan)
structure (smiles),measurement,setting,value
COc1cc(/C=C2\N=C(N)NC2=O)ccc1O [Polyandrocarpamine A],Score,[1],98
same,Score,[2],95
same,Score,[3],100
same,Score,ACVR2A,100
same,Score,ALK,100
same,Score,AURKA,100
same,Score,AURKB,100
same,Score,BMPR1A,100
same,Score,CAMKK1,100
same,Score,CDKL3,100
same,Score,CTK,100
same,Score,[4],100
same,Score,"EGFR(L858R,T790M)",100
same,Score,EPHB3,100
same,Score,FGR,100
same,Score,FLT3(D835Y),100
same,Score,GRK1,100
same,Score,GSK3A,100
same,Score,INSR,90
same,Score,IRAK1,28
same,Score,IRAK3,98
same,Score,MAP3K15,100
same,Score,MAP3K2,100
same,Score,MAP3K4,100
same,Score,MERTK,100
same,Score,MET(Y1235D),100
same,Score,MLK3,100
same,Score,MTOR,84
same,Score,NEK11,100
same,Score,NEK9,100
same,Score,SRMS,100
same,Score,TIE1,81
same,Score,TSSK1B,100
same,Score,[5],100
same,Score,ULK3,100
same,Score,YANK3,100
